# Data published in US20150274719A1, “AMINO-SUBSTITUTED IMIDAZO[1,2-A]PYRIDINECARBOXAMIDES AND THEIR USE” (BAYER PHARMA AKTIENGESELLSCHAFT, priority 2012, published 2015).
# Counter-ions that a name gives are not always drawn.
# Experiments:
# [1] = Determination of pharmacokinetic parameters following intravenous and oral administration (rats); format: in vivo, male Wistar rats; conditions: intravenous administration in rats; for half-life / MRT: male, Wistar, rat, plasma, iv; for MRT: read-out: MRT
# Protocol: B-6. Determination of Pharmacokinetic Parameters Following Intravenous and Oral Administration
# The pharmacokinetic parameters of the compounds according to the invention are determined in male CD-1 mice, male Wistar rats and female beagles. Intravenous administration in the case of mice and rats is carried out by means of a species-specific plasma/DMSO formulation, and in the case of dogs by means of a water/PEG400/ethanol formulation. In all species, oral administration of the dissolved substance is performed via gavage, based on a water/PEG400/ethanol formulation. The taking of blood from rats is simplified by inserting a silicone catheter into the right Vena jugularis externa prior to substance administration. The operation is carried out at least one day prior to the experiment with […] and administration of an analgesic (atropin/Rimadyl (3/1) 0.1 ml s.c.). The blood is taken (generally more than 10 time points) within a time window including terminal time points of at least 24 to a maximum of 72 hours after substance administration. When the blood is taken, it is passed into heparinised tubes. Then the blood plasma is obtained by centrifugation and is optionally stored at −20° C. until further processing.
# An internal standard (which may also be a chemically unrelated substance) is added to the samples of the compounds according to the invention, calibration samples and qualifiers, and there follows protein precipitation by means of excess acetone. Addition of a buffer solution matched to the LC conditions, and subsequent vortexing, is followed by centrifugation at 1000 g. The supernatant is analysed by LC-MS/MS using C18 reversed-phase columns and variable mobile phase mixtures. The substances are quantified via the peak heights or areas from extracted ion chromatograms of specific selected ion monitoring experiments.
# The plasma concentration/time plots determined are used to calculate the pharmacokinetic parameters such as AUC, Cmax, t1/2 (terminal half life), F (bioavailability), MRT (mean residence time) and CL (clearance), using a validated pharmacokinetic calculation program.
# Since the substance quantification is carried out in plasma, it is necessary to determine the blood/plasma distribution of the substance in order to be able to adjust the pharmacokinetic parameters correspondingly. For this purpose, a defined amount of substance is incubated in heparinized whole blood of the species in question in a rocking roller mixture for 20 min. After centrifugation at 1000 g, the plasma concentration is measured (by means of LC-MS/MS; see above) and determined by calculating the ratio of the Cblood/Cplasma value.
# [2] = target: T1, recombinant guanylate cyclase reporter cell line (Rattus norvegicus, UniProt P19686+P20595); assay: Action on recombinant guanylate cyclase reporter cell line; format: cell-based; conditions: in some cases mean values from individual determinations
# T1 construct: expressed in transfected cells; host or cells: recombinant reporter cell line
# T1 sequence (P19686 1-690): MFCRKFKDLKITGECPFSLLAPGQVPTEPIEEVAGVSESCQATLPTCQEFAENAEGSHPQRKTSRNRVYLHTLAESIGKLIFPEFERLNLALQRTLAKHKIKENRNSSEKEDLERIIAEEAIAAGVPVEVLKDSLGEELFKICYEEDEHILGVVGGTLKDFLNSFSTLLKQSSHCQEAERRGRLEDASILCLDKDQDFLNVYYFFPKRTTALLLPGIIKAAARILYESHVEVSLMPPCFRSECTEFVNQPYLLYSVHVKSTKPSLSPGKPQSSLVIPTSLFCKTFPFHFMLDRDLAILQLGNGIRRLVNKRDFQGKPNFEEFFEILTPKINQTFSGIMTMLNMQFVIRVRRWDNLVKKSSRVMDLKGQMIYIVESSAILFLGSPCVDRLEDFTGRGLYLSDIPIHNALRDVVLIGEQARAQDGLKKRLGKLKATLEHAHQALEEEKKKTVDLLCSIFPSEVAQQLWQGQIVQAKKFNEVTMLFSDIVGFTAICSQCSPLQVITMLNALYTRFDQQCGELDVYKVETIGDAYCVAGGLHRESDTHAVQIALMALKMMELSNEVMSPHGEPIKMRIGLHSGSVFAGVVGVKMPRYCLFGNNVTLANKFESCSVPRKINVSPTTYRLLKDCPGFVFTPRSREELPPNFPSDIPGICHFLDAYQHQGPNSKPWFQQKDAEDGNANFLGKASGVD
# T1 sequence (P20595 1-619): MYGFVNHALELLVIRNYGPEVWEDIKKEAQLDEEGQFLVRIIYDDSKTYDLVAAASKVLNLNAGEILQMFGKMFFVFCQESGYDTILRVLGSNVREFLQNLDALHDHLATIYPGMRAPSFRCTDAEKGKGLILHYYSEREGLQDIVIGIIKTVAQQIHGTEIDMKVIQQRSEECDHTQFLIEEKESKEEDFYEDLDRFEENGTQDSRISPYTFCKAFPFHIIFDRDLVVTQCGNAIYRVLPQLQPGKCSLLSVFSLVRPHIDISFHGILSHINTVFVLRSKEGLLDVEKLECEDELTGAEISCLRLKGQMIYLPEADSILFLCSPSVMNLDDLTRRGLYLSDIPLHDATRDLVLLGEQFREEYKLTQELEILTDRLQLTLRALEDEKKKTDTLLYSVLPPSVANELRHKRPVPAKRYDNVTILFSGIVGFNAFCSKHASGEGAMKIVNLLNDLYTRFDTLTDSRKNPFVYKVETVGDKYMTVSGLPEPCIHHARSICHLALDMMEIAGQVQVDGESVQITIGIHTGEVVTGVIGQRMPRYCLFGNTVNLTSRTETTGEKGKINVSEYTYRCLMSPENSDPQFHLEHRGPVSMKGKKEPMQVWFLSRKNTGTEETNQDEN
# Summary of the method: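 Rat recombinant guanylate cyclase reporter cell line measures cellular activity. Value reported as MEC (minimal effective concentration), sometimes averaged over individual determinations.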
SMILES,MEC (minimal effective concentration) [2],other results
"Cc1nc2c(OCc3c(F)cccc3F)cccn2c1C(=O)NC(CN)CCCC(F)(F)F (racemic) [Example 4, rac-N-(1-amino-6,6,6-trifluorohexan-2-yl)-8-[(2,6-difluorobenzyl)oxy]-2-methylimidazo[1,2-a]pyridine-3-carboxamide]",,AUCnorm [1]: 0.58 kg·h/L; CLblood [1]: 27.8 mL/min/kg; half-life [1]: 5.2 h; MRT [1]: 6.7 h
"Cc1cc(OCc2c(F)cccc2F)c2nc(C)c(C(=O)NCC(C)(N)CF)n2c1 (racemic) [Example 282, rac-N-(2-amino-3-fluoro-2-methylpropyl)-8-[(2,6-difluorobenzyl)oxy]-2,6-dimethylimidazo[1,2-a]pyridine-3-carboxamide Formate]",0.3 µM,AUCnorm [1]: 0.73 kg·h/L; CLblood [1]: 23.5 mL/min/kg; half-life [1]: 4.5 h; MRT [1]: 5.7 h
"Cc1cc(OCc2c(F)cccc2F)c2nc(C)c(C(=O)NCC(C)(C)NCCO)n2c1 [Example 349, 8-[(2,6-Difluorobenzyl)oxy]-N-{2-[(2-hydroxyethyl)amino]-2-methylpropyl}-2,6-dimethylimidazo[1,2-a]pyridine-3-carboxamide]",1.00 µM,
"CCCC(C)(N)CNC(=O)c1c(C)nc2c(OCc3ccccc3Br)cc(C)cn12 (stereo not shown) [Example 353, N-(2-amino-2-methylpentyl)-8-[(2-bromobenzyl)oxy]-2,6-dimethylimidazo[1,2-a]pyridine-3-carboxamide]",3.00 µM,
"C#Cc1cc(OCc2c(F)cccc2F)c2nc(C)c(C(=O)NCC(C)(N)CCC)n2c1 (stereo not drawn) [Example 355, ent-N-(2-amino-2-methylpentyl)-8-[(2,6-difluorobenzyl)oxy]-6-ethynyl-2-methylimidazo[1,2-a]pyridine-3-carboxamide Formate]",0.30 µM,
"CCCC(C)(N)CNC(=O)c1c(C)nc2c(OCc3c(F)ccc(C4CC4)c3F)cc(C)cn12 (stereo not drawn) [Example 359, ent-N-(2-amino-2-methylpentyl)-8-[(3-cyclopropyl-2,6-difluorobenzyl)oxy]-2,6-dimethylimidazo[1,2-a]pyridine-3-carboxamide]",3.00 µM,
"COc1ccc(F)c(COc2cc(C)cn3c(C(=O)NCC(C)(N)CF)c(C)nc23)c1F (stereo not drawn) [Example 361, ent-N-(2-amino-3-fluoro-2-methylpropyl)-8-[(2,6-difluoro-3-methoxybenzyl)oxy]-2,6-dimethylimidazo[1,2-a]pyridine-3-carboxamide]",1.00 µM,
"Cc1cc(OCc2c(F)ccc(C3CC3)c2F)c2nc(C)c(C(=O)NCC(C)(N)CF)n2c1 (stereo not shown) [Example 362, N-(2-amino-3-fluoro-2-methylpropyl)-8-[(3-cyclopropyl-2,6-difluorobenzyl)oxy]-2,6-dimethylimidazo[1,2-a]pyridine-3-carboxamide]",1.00 µM,
"CCCC(C)(N)CNC(=O)c1c(C)nc2c(OCc3c(F)ccc(OC)c3F)cc(C)cn12 (stereo not drawn) [Example 364, ent-N-(2-amino-2-methylpentyl)-8-[(2,6-difluoro-3-methoxybenzyl)oxy]-2,6-dimethylimidazo[1,2-a]pyridine-3-carboxamide]",0.30 µM,
"Cc1cc(OCc2c(F)cccc2F)c2nc(C)c(C(=O)NC34CC5CC(CC(N)(C5)C3)C4)n2c1 [Example 365, N-(3-aminoadamantan-1-yl)-8-[(2,6-difluorobenzyl)oxy]-2,6-dimethylimidazo[1,2-a]pyridine-3-carboxamide Formate]",1.00 µM,
CCOC(=O)c1cccc(C(CN)NC(=O)c2c(C)nc3c(OCc4c(F)cccc4F)cc(C)cn23)n1 (stereo not shown) [Example 397],1.00 µM,
"CCCC(C)(N)CNC(=O)c1c(C)nc2c(OCc3c(F)cccc3F)cc(CF)cn12 (stereo not drawn) [Example 403, ent-N-(2-amino-2-methylpentyl)-8-[(2,6-difluorobenzyl)oxy]-6-(fluoromethyl)-2-methylimidazo[1,2-a]pyridine-3-carboxamide]",0.10 µM,
Cc1nc2c(OCc3c(F)cccc3F)cc(CF)cn2c1C(=O)NCC(C)(N)CF (stereo not shown) [Example 405],0.30 µM,

# Second part, led by results:
MEC (minimal effective concentration) [2],SMILES,other results
1.00 µM,"CCCc1nc2c(OCc3c(F)cccc3F)cc(C)cn2c1C(=O)NCC(C)(N)CC (stereo not drawn) [Example 327, ent-N-(2-amino-2-methylbutyl)-8-[(2,6-difluorobenzyl)oxy]-6-methyl-2-propylimidazo[1,2-a]pyridine-3-carboxamide]",
0.10 µM,"CCCC(C)(N)CNC(=O)c1c(CC)nc2c(OCc3c(F)cccc3F)cc(C)cn12 (stereo not drawn) [Example 338, ent-N-(2-amino-2-methylpentyl)-8-[(2,6-difluorobenzyl)oxy]-2-ethyl-6-methylimidazo[1,2-a]pyridine-3-carboxamide]",
3.00 µM,"COc1cccc(F)c1COc1cc(C)cn2c(C(=O)NCC(C)(C)N)c(C)nc12 [Example 352, N-(2-amino-2-methylpropyl)-8-[(2-fluoro-6-methoxybenzyl)oxy]-2,6-dimethylimidazo[1,2-a]pyridine-3-carboxamide]",
3.00 µM,"CCCC(C)(N)CNC(=O)c1cnc2c(OCc3c(F)cccc3F)cccn12 (stereo not drawn) [Example 354, ent-N-(2-amino-2-methylpentyl)-8-[(2,6-difluorobenzyl)oxy]imidazo[1,2-a]pyridine-3-carboxamide]",
1.00 µM,"CCC(C)(N)CNC(=O)c1c(C)nc2c(OCc3c(F)ccc(OC)c3F)cc(C)cn12 (stereo not drawn) [Example 360, ent-N-(2-amino-2-methylbutyl)-8-[(2,6-difluoro-3-methoxybenzyl)oxy]-2,6-dimethylimidazo[1,2-a]pyridine-3-carboxamide]",
3.00 µM,"CCC(C)(N)CNC(=O)c1c(C)nc2c(OCc3c(F)ccc(C4CC4)c3F)cc(C)cn12 (stereo not drawn) [Example 363, ent-N-(2-amino-2-methylbutyl)-8-[(3-cyclopropyl-2,6-difluorobenzyl)oxy]-2,6-dimethylimidazo[1,2-a]pyridine-3-carboxamide]",
0.30 µM,Cc1cc(OCc2c(F)cccc2F)c2nc(C)c(C(=O)NC(CN)c3ccc(C#N)cc3)n2c1 (stereo not shown) [Example 398],
0.30 µM,CCC(C)(N)CNC(=O)c1c(C)nc2c(OCc3c(F)cccc3F)cc(CF)cn12 (stereo not shown) [Example 404],
